Data from patent US20080182908A1, “PHARMACEUTICAL COMPOSITIONS COMPRISING MEMANTINE” (priority 2007, published 2008).
Structures can show the parent of a compound that is named as a salt.

Columns and labels:
[1] = test system: NMDA (N-methyl-D-aspartate) receptor; settings: noncompetitive NMDA receptor antagonist; cited from earlier work
[2] = cited from earlier work
[3] = Physicochemical properties of the active ingredient (density, flow, particle size distribution); settings: active ingredient used in Example 1
Excerpt: The different physicochemical properties of the active ingredient as well as excipients are to be considered, as these properties affect processing and the formulation properties of the compositions. Various physicochemical properties include, but are not limited to, particle size of the active ingredient, density (including bulk density and tapped density), compressibility index, Hausner's ratio, angle of repose, etc. The percentages of particles with different sizes that exist in a total powder, is the particle size distribution. It is represented in certain ways. Particle size is the maximun dimension of a particle, frequently expressed in micrometers. Particle size distributions can be expressed in terms of D10, D50, D90 and D[4,3]. The D10, D50 and D90 represent the 10th, median or the 50th percentile, and the 90th percentile of the particle size distribution, respectively, as measured by volume. That is, the D10, D50, D90 are values of the distribution such that 10%, 50%, and 90% of the particles have a size of this value or less […]. D50 also known as median diameter of particles. It is one of the important parameters representing characteristics of particle of powder. For a sample, if D50=5 μm, it means that 50% of the particles are smaller than 5 μm. Similarly, if D10=5 μm, 10% of the particles are less than or equal to 5 μm and if D90=5 μm, 90% of the particles have sizes less than or equal to 5 μm. D[4,3] is the volume moment mean of the particles or the volume weighted particle size.

C[C@]12CC3C[C@](C)(C1)C[C@@](N)(C3)C2 [Memantine, 1-amino-3,5-dimethyladamantane]
Affinity for the receptor [1]: low to moderate affinity
Blocking/unblocking kinetics [1]: rapid blocking/unblocking kinetics

CC12CC3CC(C)(C1)CC(N)(C3)C2 [memantine hydrochloride]
Solubility in water [2]: highly soluble in water
Bulk density [3]: 0.317 g/mL
Compressibility index [3]: 31.83
Hauser's ratio [3]: 1.467
Particle size distribution: D(10) [3]: 10.744 μm
Particle size distribution: D(50) [3]: 60.545 μm
Particle size distribution: D(90) [3]: 210.482 μm
Tapped density [3]: 0.465 g/mL
